Assay results from PubChem BioAssay AID1996.
In brackets after ≈: the same amount, converted by molar mass.

Conditions: buffer; pH 7.4; 200.0 µM

| SMILES | solubility kinetic |
| --- | --- |
| Cc1onc(-c2ccccc2)c1C(=O)N1CCN(c2ncccn2)CC1 | > 52.4 µg/mL |
| CCOC(=O)C1=C(C)OC(N)=C(C#N)C1c1cccs1 (stereo not given) | 17.1 µg/mL (≈ 58.9 µM) |
| COc1ccc(C(=O)NCCCNC(=O)c2cccnc2)cc1OC | 44.5 µg/mL (≈ 130 µM) |
| O=[N+]([O-])c1ccc2c(c1)/C(=N\O)c1ccccc1-2 | 0.5 µg/mL (≈ 2.08 µM) |
| CCOc1ccccc1N1CCN(C(=O)c2cccs2)CC1 | 45.7 µg/mL (≈ 144 µM) |
| Clc1cccc2c1CCN(Cc1nc(-c3cnccn3)no1)C2 | 33.9 µg/mL (≈ 103 µM) |
| O=C(CCCc1ccccc1)Nc1ccccc1C(F)(F)F | 5.1 µg/mL (≈ 16.6 µM) |
| Cc1ccc2[nH]c(C(=O)N3CCN(c4cccc(Cl)c4)CC3)cc2c1 | < 0.3 µg/mL |
| CCc1sc(-c2ccccc2)nc1C(=O)OC | < 0.5 µg/mL |
| Nc1cc(=O)[nH]c(=O)n1CCc1ccccc1 | > 34.7 µg/mL |
| Cc1cnc(C(=O)NC(C)CCc2ccccc2)cn1 (stereo not given) | > 40.4 µg/mL |
| O=C(NC1(O)C(=O)c2ccccc2C1=O)c1ccc(C(F)(F)F)cc1 | > 52.4 µg/mL |
| COC(=O)Nc1ccc(SCC(=O)c2ccccc2)cc1 | 3.4 µg/mL (≈ 11.3 µM) |
| Cn1c(=O)c(S(=O)C2CCCCC2)c(O)c2ccccc21 (stereo not given) | > 45.8 µg/mL |
| COc1ccc(NC(=O)COC(C)=O)cc1OC | > 38 µg/mL |
| Cc1ccc(S(=O)(=O)N2CCCCC2)cc1NC(=O)C1CCC1 | 16.4 µg/mL (≈ 48.7 µM) |
| CN(CC(=O)Nc1ccccc1C(=O)Nc1ccccc1)C1CCCCC1 | 2.4 µg/mL (≈ 6.57 µM) |
| O=C1/C(=C\c2ccc(O)c(O)c2)SC(=S)N1Cc1ccccc1 | 4 µg/mL (≈ 11.6 µM) |
| COc1ccccc1C(=O)COC(=O)COc1ccc(C#N)cc1 | > 48.8 µg/mL |
| CCC(CC)C(=O)Nc1cccc(C(=O)NCCc2ccccc2)c1 | 40.8 µg/mL (≈ 121 µM) |
| CCCCCC(=O)Nc1c2c(nc3ccccc13)CCC2 | 18.7 µg/mL (≈ 66.2 µM) |
| CC(Sc1nccn1C)C(=O)c1ccc(Br)cc1 (stereo not given) | 42.9 µg/mL (≈ 132 µM) |
| Cc1ccccc1NC1=NC(=S)N(CC(N)=O)C12CCOC(C)(C)C2 (stereo not given) | > 54.1 µg/mL |
| O=C(Nc1cccc(S(=O)(=O)NC2=NCCC2)c1)c1ccccc1F | > 54.2 µg/mL |
| CN(C)C(=O)CSc1ccc(S(=O)(=O)N2CCCC2)cn1 | > 49.4 µg/mL |
| O=C(CCC(=O)NCc1ccccc1)NCc1ccccc1 | 12.7 µg/mL (≈ 42.9 µM) |

| SMILES | solubility kinetic |
| --- | --- |
| COC(=O)c1ccc2c(c1)C(C)(C)C(/C=C/c1ccc(O)cc1)=[N+]2C.[I-] | 41.6 µg/mL |
| OCCNc1c2ccccc2nc2ccccc12 | 33.7 µg/mL (≈ 141 µM) |
| O=S(N1CCc2ccccc21)C12CC3CC(CC(C3)C1)C2 (stereo not given) | 4.4 µg/mL (≈ 14.6 µM) |
| CCc1cccc(NC(=O)c2cc(OC)c(OC)c(OC)c2)c1 | 34.2 µg/mL (≈ 108 µM) |
| COc1ccc(-c2ccc(CCC(=O)O)n2Cc2ccco2)cc1 | 48.1 µg/mL (≈ 148 µM) |
| Cc1ccc(NC(=O)N2CCCc3ccccc32)cc1C | 29 µg/mL (≈ 103 µM) |
| COc1cc2c(cc1OC)CN(C(=O)c1oc3ccccc3c1C)CC2 | 27.2 µg/mL (≈ 77.4 µM) |
| CCOc1ccccc1C(=O)OCC(=O)NCc1ccc2c(c1)OCO2 | > 53.6 µg/mL |
| Cc1ccc(C(=O)Nc2ccc(F)c(S(=O)(=O)N3CCOCC3)c2)s1 | 5.3 µg/mL (≈ 13.8 µM) |
| Cc1c(Cl)cccc1NC(=O)CNC(=O)c1ccco1 | 38.2 µg/mL (≈ 130 µM) |
| COc1ccc(NC(=O)CN2CCCC2)cc1 | 34 µg/mL (≈ 145 µM) |
| CCOC(=O)C(Cc1c(F)cccc1Cl)c1ccno1 (stereo not given) | 29.6 µg/mL (≈ 99.4 µM) |
| CCOc1ccc(NC(=O)CCS(=O)(=O)c2ccc(C)cc2)cc1 | > 52.1 µg/mL |
| Cc1ccccc1-n1c(C)c(C#N)c(=O)c(-[n+]2ccccc2)c1[S-] | 45.5 µg/mL (≈ 136 µM) |
| C[N+](C)(C)c1ccccc1.[I-] | > 39.5 µg/mL |
| Cn1cccc1C(=O)NCCc1ccccc1 | > 34.2 µg/mL |
| O=C(NC12CC3CC(CC(C3)C1)C2)c1cncc(Br)c1 | 8.5 µg/mL (≈ 25.4 µM) |
| CC(=O)c1c(C)[nH]c(=S)c(C#N)c1-c1ccc(F)cc1 | > 42.9 µg/mL |
| Cc1ccc(/C=C(\C#N)C(=O)NC(C)c2ccccc2)o1 (stereo not given) | 8.6 µg/mL (≈ 30.7 µM) |
| COc1ccc(NC(=O)COC(=O)C2CCN(C(=O)c3ccc(Cl)cc3)CC2)c([N+](=O)[O-])c1 | 22.4 µg/mL (≈ 47.1 µM) |
| S=C(NCc1ccccc1)NCc1ccc(Cl)cc1 | 2.3 µg/mL (≈ 7.91 µM) |
| COc1cc2c(cc1OC)C(c1ccc(Br)cc1)NC(=O)C2 (stereo not given) | 45.2 µg/mL (≈ 125 µM) |
| COc1ccc(-c2ccc(C(=O)O)o2)c([N+](=O)[O-])c1 | > 39.5 µg/mL |
| CC1CCN(c2nc(N(C)c3ccccc3)nc(N)c2[N+](=O)[O-])CC1 | 4.6 µg/mL (≈ 13.4 µM) |
| CC(C)(CN1CCOCC1)NS(=O)(=O)c1ccccc1 | 38 µg/mL (≈ 127 µM) |
| O=C(CSc1nc2ccccc2c(=O)n1Cc1ccc(F)cc1)NCC1CCCO1 (stereo not given) | 4.1 µg/mL (≈ 9.59 µM) |

More lines, now with the values ahead:

| solubility kinetic | SMILES |
| --- | --- |
| 2.4 µg/mL (≈ 8.59 µM) | C=CCn1c(NCc2ccccc2O)nc2ccccc21 |
| > 48.7 µg/mL | CC(C)(C)CC(=O)Nc1ccc(S(=O)(=O)N2CCCC2)cc1 |
| 8.4 µg/mL (≈ 26.6 µM) | CC(OC(=O)/C=C/c1ccccc1)C(=O)NC1CCCCC1C (stereo not given) |
| 3.2 µg/mL (≈ 6.39 µM) | Cn1c(N)c(C(=O)COC(=O)c2ccccc2C(=O)c2ccc(Cl)c([N+](=O)[O-])c2)c(=O)n(C)c1=O |
| 9.5 µg/mL (≈ 30.6 µM) | NC(=O)c1ccccc1OCC(=O)Nc1ccc2c(c1)CCC2 |
| > 45.2 µg/mL | CN(C)c1cccc(C(=O)NCC(c2ccco2)N(C)C)c1 (stereo not given) |
| 7.6 µg/mL (≈ 22.4 µM) | CCOC(=O)Cn1c(=O)n(Cc2ccccc2)c(=O)c2cccnc21 |
| 52.5 µg/mL (≈ 146 µM) | CCOc1ccc(NC(=O)CN(C)C(=O)c2ccc(C)o2)cc1OCC |
| 5.9 µg/mL (≈ 25 µM) | NC1=NC(=O)/C(=C/C=C/c2cccs2)S1 |
| 24.7 µg/mL (≈ 87.5 µM) | Cn1c(CNC(=O)c2ccc(F)cc2)cc2ccccc21 |
| 3.3 µg/mL (≈ 8.93 µM) | COc1cccc(/C=C/C(=O)OCC(=O)NCc2ccc3c(c2)OCO3)c1 |
| 23.4 µg/mL (≈ 101 µM) | Cc1ccc(CN2CCCN(C)CC2)c(C)c1 |
| 0.8 µg/mL (≈ 2.43 µM) | CCC1(C)Cc2ccccc2-c2nc(SCC(N)=O)[nH]c(=O)c21 (stereo not given) |
| > 36.1 µg/mL | CC(C)Cc1ccc(C(C)C(=N)N)cc1.Cl (stereo not given) |
| 1.9 µg/mL (≈ 5.8 µM) | O=C(Cc1ccc(Cl)cc1)NCc1nc(-c2ccccc2)no1 |
| 10.8 µg/mL (≈ 34.9 µM) | COc1ccccc1CNC(=O)c1cc(=O)c2ccccc2o1 |
| 34.8 µg/mL (≈ 121 µM) | Cc1nc(Cl)sc1C(=O)Nc1cccc(Cl)c1 |

| solubility kinetic | SMILES |
| --- | --- |
| > 44.6 µg/mL | CCn1cc(S(=O)(=O)NCCc2ccc(F)cc2)cn1 |
| 36.7 µg/mL (≈ 105 µM) | Cc1ccccc1OCC(=O)Nc1ccccc1NC(=O)c1ccco1 |
| > 42.8 µg/mL | Cc1[nH]c2ccccc2c1C(=O)C(=O)N1CCN(C)CC1 |
| 30 µg/mL (≈ 112 µM) | O=S(=O)(NC1CCCCCCC1)c1ccccc1 |
| > 46.6 µg/mL | Cc1ccc(S(=O)(=O)NC(=O)N(C)C2CCCCC2)cc1 |
| > 33.8 µg/mL | CCOC(=O)C1=C(C)N(CC(C)C)C(=O)C1 |
| > 50 µg/mL | CN1CCN(c2nc(NCc3ccco3)nc(N)c2[N+](=O)[O-])CC1 |
| > 34.7 µg/mL | Cc1ccc(F)cc1NC(=O)c1cnccn1 |
| 7.5 µg/mL (≈ 19.1 µM) | O=C(NCC(c1ccco1)N1CCCC1)c1sc2cc(F)ccc2c1Cl (stereo not given) |
| > 44.8 µg/mL | O=C(NCCCN1CCOCC1)c1ccc2ccccc2c1 |
| 15 µg/mL (≈ 48.2 µM) | Oc1cccc(C(=S)N2CCC(Cc3ccccc3)CC2)c1 |
| > 38.9 µg/mL | CC(=O)Nc1ccc(C(=O)Nc2cc(C)on2)cc1 |
| > 41.3 µg/mL | O=C(NN1CCOCC1)c1ccc(Cl)cc1Cl |
| > 63.8 µg/mL | CCCCN(C(=O)c1c(-c2ccccc2)noc1C)c1c(N)n(CCC)c(=O)[nH]c1=O |
| 9.4 µg/mL (≈ 48.8 µM) | Cc1nc2ccc(Cl)cc2nc1C |
| > 74 µg/mL | CC(=O)Nc1ccc(S(=O)(=O)Nc2nc3ccccc3nc2Nc2ccc(C(=O)O)c(O)c2)cc1 |
